# Assay results as given in patent US20220409727A1, “Metal Complexes Bearing Bisstyryl-Bipyridine Ligand and Their Use as Photosensitizer Agent in One and Two-Photon Photodynamic Therapy” (Paris Sciences et Lettres, priority 2019, published 2022).
# Like-named read-outs stand apart in the source and are kept apart here.
# Columns and labels:
# [1] = Luminescence lifetime measurements; format: physicochemical; conditions: excitation at 355 nm; for τ/ns air (Lifetime): air saturated CH3CN; for τ/ns degassed (Lifetime): degassed CH3CN
# Outline: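 Lifetimes were measured in air-saturated and degassed CH3CN solutions (absorbance 0.2 at 355 nm), excited at 355 nm by a pulsed Nd-YAG-pumped OPO. Emission was collected at right angles through a monochromator onto a photomultiplier tube.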
# [2] = tested on: human glioblastoma astrocytoma (U373) cells
# [3] = Singlet oxygen measurement, indirect evaluation (RNO absorbance); format: physicochemical
# Outline: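 Complex (absorbance 0.2 in air-saturated CH3CN with RNO 24 μM, imidazole 12 mM; or 0.1 in air-saturated PBS with RNO 20 μM, histidine 10 mM) irradiated for varying times. RNO bleaching (A0−A) at 420 nm (CH3CN) or 440 nm (PBS) plotted against time; slope with absorbance correction gives singlet oxygen quantum yield.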
# [4] = Singlet oxygen measurement, direct evaluation (1O2 luminescence at 1270 nm); format: physicochemical
# Outline: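 Air-saturated CH3CN or D2O solutions (A450 = 0.2) irradiated with 450 nm LED at varied intensities; 1O2 emission at 1270 nm recorded 1100–1400 nm with cooled germanium detector. Quantum yield from slope of integrated peak area versus intensity, absorbance-corrected, relative to Rose Bengal (Φ=76%).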
# HeLa MCTS = test: (Photo-)cytotoxicity on 3D multicellular tumor spheroids (ATP, CellTiter-Glo 3D); format: cell-based, human; conditions: for PI (1-Photon): dark vs 1-Photon irradiation (500 nm, 10 J/cm^2); for PI (2-Photon): dark vs 2-Photon irradiation (800 nm, 10 J/cm^2); for phototoxicity in HeLa MCTS: 1 Photon and 2 Photons irradiation, compared with compounds 4-6, 8, 10
# Outline: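 HeLa spheroids grown on agarose from 3000 cells/well over 2–3 days, then treated with compound (2% DMSO) for 12 h. Spheroids kept dark or irradiated at 500 nm one-photon or 800 nm two-photon (10 J/cm^2 each), then incubated 48 h more. Viability read as ATP by luminescence.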
# [5] = 1-Photon irradiation (500 nm, 10 J/cm^2), read-out: IC50 1-Photon irradiation (500 nm, 10 J/cm^2)
# [6] = 2-Photon irradiation (800 nm, 10 J/cm^2, section interval of 5 μm), read-out: IC50 2-Photon irradiation (800 nm, 10 J/cm^2)
# [7] = dark, 12 h incubation, read-out: IC50 dark
molecule,measurement,setting,value
"CN(C)c1ccc(/C=C/c2ccnc(-c3cc(/C=C/c4ccc(N(C)C)cc4)ccn3)c2)cc1.F[P-](F)(F)(F)(F)F.F[P-](F)(F)(F)(F)F.[Ru+2].c1ccc(-c2ccnc3c2ccc2c(-c4ccccc4)ccnc23)cc1.c1ccc(-c2ccnc3c2ccc2c(-c4ccccc4)ccnc23)cc1 [Compound 10, [Ru(4,7-Diphenyl-1,10-phenanthroline)2((E,E′)-4,4′-Bis[p-(N,N-dimethylamino)styryl]-2,2′-bipyridine)][PF6]2]",τ/ns air (Lifetime),[1],72 ns
same,τ/ns degassed (Lifetime),[1],339 ns
same,IC50,[2],2.1 ± 0.4 µM
same,"Singlet oxygen quantum yield, indirect 450 nm CH3CN",[3]; CH3CN,48%
same,"Singlet oxygen quantum yield, indirect 450 nm PBS",[3],2%
same,"Singlet oxygen quantum yield, indirect 540 nm CH3CN",[3]; CH3CN,43%
same,"Singlet oxygen quantum yield, indirect 540 nm PBS",[3],2%
same,"Singlet oxygen quantum yield, direct 450 nm CH3CN",[4],51%
same,IC50,HeLa MCTS; [5],8.9 ± 0.7 µM
same,IC50,HeLa MCTS; [6],3.1 ± 0.6 µM
same,PI (1-Photon),HeLa MCTS,3.1
same,PI (2-Photon),HeLa MCTS,9.0
same,IC50,HeLa MCTS; [7],27.8 ± 3.6 µM
"COc1ccc(C=Cc2ccnc(-c3cc(C=Cc4ccc(OC)cc4)ccn3)c2)cc1.F[P-](F)(F)(F)(F)F.F[P-](F)(F)(F)(F)F.[Ru+2].c1ccc(-c2ccnc3c2ccc2c(-c4ccccc4)ccnc23)cc1.c1ccc(-c2ccnc3c2ccc2c(-c4ccccc4)ccnc23)cc1 [Compound 11, [Ru(4,7-Diphenyl-1,10-phenanthroline)2((E,E′)-4,4′-Bis[p-methoxystyryl]-2,2′-bipyridine)][PF6]2]",τ/ns air (Lifetime),[1],108 ns
same,τ/ns degassed (Lifetime),[1],679 ns
same,IC50,[2],0.7 ± 0.3 µM
same,"Singlet oxygen quantum yield, indirect 450 nm CH3CN",[3]; CH3CN,73%
same,"Singlet oxygen quantum yield, indirect 450 nm PBS",[3],7%
same,"Singlet oxygen quantum yield, indirect 540 nm CH3CN",[3]; CH3CN,72%
same,"Singlet oxygen quantum yield, indirect 540 nm PBS",[3],5%
same,"Singlet oxygen quantum yield, direct 450 nm CH3CN",[4],66%
same,IC50,HeLa MCTS; [5],3.8 ± 0.4 µM
same,phototoxicity in HeLa MCTS,HeLa MCTS,much higher phototoxicity
same,IC50,HeLa MCTS; [6],0.8 ± 0.5 µM
same,PI (1-Photon),HeLa MCTS,7.7
same,PI (2-Photon),HeLa MCTS,36.6
same,IC50,HeLa MCTS; [7],29.3 ± 2.9 µM
"[Ru(bipy)2((E,E′)-4,4′-Bis[p-(N,N-methoxy)styryl]-2,2′-bipyridine)][PF6]2 [Compound 7]",τ/ns degassed (Lifetime),[1],542 ns
same,IC50,[2],13.5 ± 1.6 µM
same,singlet oxygen quantum yields in CH3CN,"[3]; CH3CN, range over direct and indirect methods, 450 and 540 nm",68-77%
same,singlet oxygen quantum yields in an aqueous solution,"[3]; aqueous solution (PBS), range over 450 and 540 nm",10-11%
same,"Singlet oxygen quantum yield, indirect 450 nm CH3CN",[3]; CH3CN,77%
same,"Singlet oxygen quantum yield, indirect 450 nm PBS",[3],11%
same,"Singlet oxygen quantum yield, indirect 540 nm CH3CN",[3]; CH3CN,68%
same,"Singlet oxygen quantum yield, indirect 540 nm PBS",[3],10%
same,"Singlet oxygen quantum yield, direct 450 nm CH3CN",[4],75%
same,IC50,HeLa MCTS; [5],6.8 ± 0.2 µM
same,phototoxicity in HeLa MCTS,HeLa MCTS,much higher phototoxicity
same,IC50,HeLa MCTS; [6],1.4 ± 0.2 µM
same,PI (1-Photon),HeLa MCTS,>44.1
same,PI (2-Photon),HeLa MCTS,>214.3
same,IC50,HeLa MCTS; [7],> 300 µM
